Data reported in patent publication US5648365A, “Diarylalkyl piperidines useful as multi-drug resistant tumor agents” (Merrell Pharmaceuticals Inc., priority 1996, dated 1997).

Legend:
MDR tumor cells [1] = experiment: MDR activity: synergy with vinblastine, colorimetric MTT assay; type: cell-based; conditions: for EC50: concentration required to lower the IC50 of vinblastine by 50% when both added together, 72 hr, MTT, read-out: MDR Activity ED50; for Activity Index: ratio of toxicity (IC50) and MDR activity (ED50), 4320 min
Description: (§1) A colorimetric assay is employed to determine the synergy between test compounds of the invention and vinblastine or adriamycin against the growth of MDR tumor cells. The assay is based on the ability of live tumor cells to reduce a tetrazoline compound, MTT (3-(4,5-dimethyl)[…])-2,5-diphenyl tetrazolium bromide, to a blue formazan product. Both the test compound and cytotoxic drug (vinblastine or adriamycin) were added to the cells growing in wells of a 96-well plate at different combinations of concentration. The cells were allowed to grow for 72 hr and, at the end of incubation, stained with MTT for 3 hr. The blue formazan product which developed, was dissolved with DMSO and the color intensity was recorded in a spectrophotometer. Based on the data, an isobologram analysis was performed. MDR activity (ED50 : μM) represents the concentration of the compound required to lower the IC50 value of vinblastine by 50% when both the compounds were added to the medium together. Cellular toxicity (IC50 : μM) represents concentration of the compound that inhibit cell growth by 50%. Activity index is the ratio of toxicity and MDR activity.

MDR tumor cells [2] = experiment: Cellular toxicity: inhibition of cell growth, colorimetric MTT assay; type: cell-based; conditions: concentration that inhibits cell growth by 50%, 72 hr
Description: as §1

| EC50 (MDR tumor cells [1]) [µM] | Structure (SMILES) | Activity Index (MDR tumor cells [1]) | IC50 (MDR tumor cells [2]) [µM] |
| --- | --- | --- | --- |
| 0.31 | COc1cc(CC(=O)N2CCCCC2CC(c2ccccc2)c2ccccc2)cc(OC)c1OC (stereo not drawn) [Example 1, 1-[2-(2,2-Diphenyl-Ethyl)-Piperidin-1-yl]-2-(3,4,5-Trimethoxy-Phenyl)-Ethanone] | 109.0 | 33.8 |
| 1.16 | COc1ccccc1CC(=O)N1CCCCC1CC(c1ccccc1)c1ccccc1 (stereo not drawn) [Example 2, 1-[2-(2,2-Diphenyl-Ethyl)-Piperidin-1-yl]-2(2-Methoxy-Phenyl)-Ethanone] | 32.0 | 37.5 |
| 1.2 | O=C(Cc1ccc2c(c1)OCO2)N1CCCCC1CC(c1ccccc1)c1ccccc1 (stereo not drawn) [Example 3, 2-Benzo[1,3]Dioxol-5-yl-1-[2-(2,2-Diphenylethyl)-Piperidin-1-yl]-Ethanone] | 32.5 | 39 |
| 0.46 | COc1ccc(CCC(=O)N2CCCCC2CC(c2ccccc2)c2ccccc2)cc1OC (stereo not drawn) [Example 6, 3-(3,4-Dimethoxy-Phenyl)-1-[2-(2,2-Diphenylethyl)-Piperidin-1-yl]-Propan-1-one] | 47.0 | 21.6 |

| Structure (SMILES) | EC50 (MDR tumor cells [1]) [µM] | Activity Index (MDR tumor cells [1]) | IC50 (MDR tumor cells [2]) [µM] |
| --- | --- | --- | --- |
| COc1cc(CC(=O)N2CCCCC2C(c2ccccc2)c2ccccc2)cc(OC)c1OC (stereo not drawn) [Example 9] | 0.7 | 43.5 | 30.3 |
